Assay results published in patent US8119563B2, “N-substituted azacycles” (FMC Corporation, priority 2003, dated 2012).

Tested on: tobacco budworm (Heliothis virescens [Fabricius])
Assay: surface-treated diet test, insecticidal activity against tobacco budworm
Assay type: in vivo
Conditions: 0.25 millimoles of candidate insecticide on the surface of the diet, second instar larvae, five-day exposure; for Percent Mortality: compared to total number of insects infested; for Percent Growth Inhibition: inhibition of insect weight relative to untreated controls
Description: Candidate insecticides were evaluated for activity against the tobacco budworm (Heliothis virescens [Fabricius]) in a surface-treated diet test.
In this test one mL of molten (65-70° C.) wheat germ-based artificial diet was pipetted into each well of a four by six (24 well) multi-well plate (ID# 430345-15.5 mm dia.×17.6 mm deep; Corning Costar Corp., One Alewife Center, Cambridge, Mass. 02140). The diet was allowed to cool to ambient temperature before treatment with candidate insecticide.
For a determination of insecticidal activity, solutions of the candidate insecticides were prepared for testing using a Packard 204DT Multiprobe® Robotic System (Packard Instrument Company, 800 Research Parkway, Meriden, Conn. 06450), in which the robot first diluted a standard 50 millimolar DMSO solution of candidate insecticide with a 1:1 water/acetone solution (V/V) in a ratio of 1:7 stock solution to water/acetone. The robot subsequently pipetted 40 microliters of the so-prepared solution onto the surface of the diet in each of three wells in the 24 multi-well plate. The process was repeated with solutions of seven other candidate insecticides. Once treated, the contents of the multi-well plate were allowed to dry, leaving 0.25 millimoles of candidate insecticide on the surface of the diet, or a concentration of 0.25 millimolar. Appropriate untreated controls containing only DMSO on the diet surface were also included in this test.
For evaluations of the insecticidal activity of a candidate insecticide at varying rates of application, the test was established as described above using sub-multiples of the standard 50 millimolar DMSO solution of candidate insecticide. For example, the standard 50 millimolar solution was diluted by the robot with DMSO to give 5, 0.5, 0.05, 0.005, 0.0005 millimolar, or more dilute solutions of the candidate insecticide. In these evaluations there were six replicates of each rate of application placed on the surface of the diet in the 24 multi-well plate, for a total of four rates of application of candidate insecticide in each plate.
In each well of the test plate was placed one second instar tobacco budworm larvea, each weighing approximately five milligrams. After the larvae were placed in each well, the plate was sealed with clear polyfilm adhesive tape. The tape over each well was perforated to ensure an adequate air supply. The plates were then held in a growth chamber at 25° C. and 60% relative humidity for five days (light 14 hours/day).
After the five-day exposure period insecticidal activity for each rate of application of candidate insecticide was assessed as percent inhibition of insect weight relative to the weight of insects from untreated controls, and percent mortality when compared to the total number of insects infested.
The test compounds of formula I are identified by numbers that correspond to those in Table 1.

Structure (SMILES): CCn1nnc(-c2ccc(CN3CCC(O)(C(O)(c4ccc(OC(F)(F)F)cc4)c4ccc(OC(F)(F)F)cc4)CC3)cc2)n1 [Compound 416]
- Percent Mortality: 100%
- Percent Growth Inhibition: 100%

Structure (SMILES): O=C([O-])CCCCC(=O)O.OC1(C(c2ccc(OC(F)(F)F)cc2)c2ccc(OC(F)(F)F)cc2)CC[N+](O)(Cc2ccc(Oc3ccccn3)cc2)CC1 (centres unmarked) [Compound 516]
- Percent Mortality: 100%
- Percent Growth Inhibition: 100%

Structure (SMILES): OC1(C(c2ccc(OC(F)(F)F)cc2)c2ccc(OC(F)(F)F)cc2)CCN(CCOc2ccc(Br)cc2)CC1 [Compound 477]
- Percent Mortality: 100%
- Percent Growth Inhibition: 100%

Structure (SMILES): OC1(C(c2ccc(C(F)(F)F)cc2)c2ccc(C(F)(F)F)cc2)CCN(Cc2ccc(C3OCCO3)cc2)CC1 [Compound 264]
- Percent Mortality: 33%
- Percent Growth Inhibition: 100%

Structure (SMILES): CCOCON=Cc1ccc(CN2CCC(O)(C(c3ccc(OC(F)(F)F)cc3)c3ccc(OC(F)(F)F)cc3)CC2)cc1 [Compound 259]
- Percent Mortality: 100%
- Percent Growth Inhibition: 100%

Structure (SMILES): OC1(C(c2ccc(C(F)(F)F)cc2)c2cc(Cl)cc(Cl)c2)CCN(Cc2ccc(Oc3ncccn3)cc2)CC1 (centres unmarked) [Compound 3]
- Percent Mortality: 100%
- Percent Growth Inhibition: 100%

Structure (SMILES): OC1(C(c2ccc(C(F)(F)F)cc2)c2ccc(C(F)(F)F)cc2)CCN(Cc2ccc(Oc3ccccn3)cc2)CC1 [Compound 22]
- Percent Mortality: 100%
- Percent Growth Inhibition: 100%

Structure (SMILES): OC1(C(c2ccc(OC(F)(F)F)cc2)c2ccc(Cl)cc2F)CCN(Cc2ccc(Oc3ccccn3)cc2)CC1 (centres unmarked) [Compound 445]
- Percent Mortality: 100%
- Percent Growth Inhibition: 100%

Structure (SMILES): CCOCON=Cc1ccc(C[N+]2([O-])CCC(O)(C(c3ccc(OC(F)(F)F)cc3)c3ccc(OC(F)(F)F)cc3)CC2)cc1 (centres unmarked) [Compound 337]
- Percent Mortality: 100%
- Percent Growth Inhibition: 100%

Structure (SMILES): CCOC(OCC)c1ccc(CN2CCC(O)(C(c3ccc(OC(F)(F)F)cc3)c3ccc(OC(F)(F)F)cc3)CC2)cc1 [Compound 273]
- Percent Mortality: 100%
- Percent Growth Inhibition: 100%

Structure (SMILES): FC(F)(F)c1ccc(C(c2ccc(C(F)(F)F)cc2)C2(F)CCN(Cc3ccc(Oc4ccccn4)cc3)CC2)cc1 [Compound 193]
- Percent Mortality: 100%
- Percent Growth Inhibition: 100%

Structure (SMILES): COc1cc(OC)cc(C(c2ccc(C(F)(F)F)cc2)C2(O)CCN(Cc3ccc(Oc4ncccn4)cc3)CC2)c1 (centres unmarked) [Compound 5]
- Percent Mortality: 0%
- Percent Growth Inhibition: 97%

Structure (SMILES): CCCCC(CC)C(=O)[O-].OC1(C(c2ccc(OC(F)(F)F)cc2)c2ccc(OC(F)(F)F)cc2)CC[N+](O)(Cc2ccc(Oc3ccccn3)cc2)CC1 (centres unmarked) [Compound 499]
- Percent Mortality: 100%
- Percent Growth Inhibition: 100%

Structure (SMILES): CC1(C)[C@@H]2CCC1(CS(=O)(=O)[O-])C(=O)C2.CCON=Cc1ccc(C[N+]2(O)CCC(O)(C(c3ccc(OC(F)(F)F)cc3)c3ccc(OC(F)(F)F)cc3)CC2)cc1 (centres unmarked) [Compound 507]
- Percent Mortality: 100%
- Percent Growth Inhibition: 100%

Structure (SMILES): [N-]=[N+]=NCC1(C(c2ccc(C(F)(F)F)cc2)c2ccc(C(F)(F)F)cc2)CCN(Cc2ccc(OCC3CC3)cc2)CC1 [Compound 449]
- Percent Mortality: 0%
- Percent Growth Inhibition: 78%

Structure (SMILES): FC(F)(F)c1ccc(C(c2ccc(C(F)(F)F)cc2)C2(F)CCN(Cc3ccc(Oc4ncccn4)cc3)CC2)cc1 [Compound 194]
- Percent Mortality: 100%
- Percent Growth Inhibition: 100%

Structure (SMILES): CCON=Cc1ccc(C[N+]2([O-])CCC(O)(C(c3ccc(OC(F)(F)F)cc3)c3ccc(OC(F)(F)F)cc3)CC2)cc1 (centres unmarked) [Compound 118]
- Percent Mortality: 100%
- Percent Growth Inhibition: 100%

Structure (SMILES): CC1(C)[C@@H]2CCC1(CS(=O)(=O)[O-])C(=O)C2.OC1(C(c2ccc(OC(F)(F)F)cc2)c2ccc(OC(F)(F)F)cc2)CC[N+](O)(Cc2ccc(Oc3ccccn3)cc2)CC1 (centres unmarked) [Compound 505]
- Percent Mortality: 100%
- Percent Growth Inhibition: 100%

Structure (SMILES): CCON=Cc1ccc(CN2CCC(O)(C(c3ccc(OC(F)(F)F)cc3)c3ccc(Cl)cc3Cl)CC2)cc1 (centres unmarked) [Compound 444]
- Percent Mortality: 100%
- Percent Growth Inhibition: 100%

Structure (SMILES): CCCOC(=O)Nc1ccc(C[N+]2([O-])CCC(O)(C(c3ccc(OC(F)(F)F)cc3)c3ccc(OC(F)(F)F)cc3)CC2)cc1 (centres unmarked) [Compound 387]
- Percent Mortality: 100%
- Percent Growth Inhibition: 100%

Structure (SMILES): CC(C)=CCCC(C)=CCON=Cc1ccc(C(c2ccc(OC(F)(F)F)cc2)C2(O)CCN(Cc3ccc(Oc4ccccn4)cc3)CC2)cc1 (racemic) [Compound 284]
- Percent Mortality: 17%
- Percent Growth Inhibition: 100%

Structure (SMILES): O=C([O-])CCCC(=O)O.OC1(C(c2ccc(OC(F)(F)F)cc2)c2ccc(OC(F)(F)F)cc2)CC[N+](O)(Cc2ccc(Oc3ccccn3)cc2)CC1 (centres unmarked) [Compound 512]
- Percent Mortality: 100%
- Percent Growth Inhibition: 100%

Structure (SMILES): OC1(C(c2ccc(OC(F)(F)F)cc2)c2ccc(OC(F)(F)F)cc2)CCN(Cc2ccc(C3OCCCO3)cc2)CC1 [Compound 292]
- Percent Mortality: 100%
- Percent Growth Inhibition: 100%

Structure (SMILES): CC(C)OC(=O)Nc1ccc(C[N+]2([O-])CCC(O)(C(O)(c3ccc(OC(F)(F)F)cc3)c3ccc(OC(F)(F)F)cc3)CC2)cc1 (centres unmarked) [Compound 423]
- Percent Mortality: 100%
- Percent Growth Inhibition: 100%

Structure (SMILES): COc1ccc(C(c2ccc(OC(F)(F)F)cc2)C2(O)CCN(Cc3ccc(Oc4ccccn4)cc3)CC2)cc1 (centres unmarked) [Compound 260]
- Percent Mortality: 100%
- Percent Growth Inhibition: 100%

Structure (SMILES): COCCON=Cc1ccc(C[N+]2([O-])CCC(O)(C(c3ccc(OC(F)(F)F)cc3)c3ccc(OC(F)(F)F)cc3)CC2)cc1 (centres unmarked) [Compound 344]
- Percent Mortality: 100%
- Percent Growth Inhibition: 100%

Structure (SMILES): [O-][N+]1(Cc2ccc(C=NOCC(F)(F)F)cc2)CCC(O)(C(c2ccc(OC(F)(F)F)cc2)c2ccc(OC(F)(F)F)cc2)CC1 (centres unmarked) [Compound 378]
- Percent Mortality: 100%
- Percent Growth Inhibition: 100%

Structure (SMILES): [O-][N+]1(Cc2ccc(Oc3ncccn3)cc2)CCC(O)(C(c2ccc(Cl)cc2)c2ccc(OC(F)(F)F)cc2)CC1 (centres unmarked) [Compound 402]
- Percent Mortality: 100%
- Percent Growth Inhibition: 100%

Structure (SMILES): OC1(C(c2ccc(OC(F)(F)F)cc2)c2ccc(OC(F)(F)F)cc2)CCN(CCOc2ccc(Cl)cc2)CC1 [Compound 475]
- Percent Mortality: 100%
- Percent Growth Inhibition: 100%

Structure (SMILES): CC(C)=CCCC(C)=CCON=Cc1ccc(CN2CCC(O)(C(c3ccc(OC(F)(F)F)cc3)c3ccc(OC(F)(F)F)cc3)CC2)cc1 [Compound 305]
- Percent Mortality: 0%
- Percent Growth Inhibition: 31%

Structure (SMILES): CC(=O)OCC1(C(c2ccc(C(F)(F)F)cc2)c2ccc(C(F)(F)F)cc2)CC[N+]([O-])(Cc2ccc(Oc3ncccn3)cc2)CC1 (centres unmarked) [Compound 468]
- Percent Mortality: 17%
- Percent Growth Inhibition: 100%

Structure (SMILES): Cc1ccc(C(c2ccc(OC(F)(F)F)cc2)C2(O)CC[N+]([O-])(Cc3ccc(Oc4ccccn4)cc3)CC2)cc1 (centres unmarked) [Compound 340]
- Percent Mortality: 100%
- Percent Growth Inhibition: 100%

Structure (SMILES): Cc1cccc(Oc2ccc(C[N+]3([O-])CCC(O)(C(c4ccc(OC(F)(F)F)cc4)c4ccc(OC(F)(F)F)cc4)CC3)cc2)n1 (centres unmarked) [Compound 354]
- Percent Mortality: 100%
- Percent Growth Inhibition: 100%

Structure (SMILES): O=S(=O)([O-])C(F)(F)C(F)(F)C(F)(F)C(F)(F)C(F)(F)C(F)(F)C(F)(F)C(F)(F)F.OC1(C(c2ccc(OC(F)(F)F)cc2)c2ccc(OC(F)(F)F)cc2)CC[N+](O)(Cc2ccc(Oc3ccccn3)cc2)CC1 (centres unmarked) [Compound 496]
- Percent Mortality: 100%
- Percent Growth Inhibition: 100%
